For the assay, the target named is T1, Substance-K receptor (Homo sapiens) (UniProt P21452).
T1 sequence (whole entry): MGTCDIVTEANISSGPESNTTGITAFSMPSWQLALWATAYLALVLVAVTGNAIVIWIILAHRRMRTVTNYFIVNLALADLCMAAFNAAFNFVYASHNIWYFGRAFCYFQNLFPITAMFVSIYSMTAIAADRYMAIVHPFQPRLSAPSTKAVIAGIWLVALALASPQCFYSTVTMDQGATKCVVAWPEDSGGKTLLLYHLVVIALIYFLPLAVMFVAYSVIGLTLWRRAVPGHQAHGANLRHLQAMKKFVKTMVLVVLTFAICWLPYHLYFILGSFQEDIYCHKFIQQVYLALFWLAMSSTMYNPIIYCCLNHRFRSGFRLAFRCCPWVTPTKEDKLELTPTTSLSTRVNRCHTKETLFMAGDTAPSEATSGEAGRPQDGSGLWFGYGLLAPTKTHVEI
Briefly: Compound was evaluated for binding affinity to human recombinant Tachykinin receptor 2.

As to `O=C(Cc1c[nH]c2ccccc12)N[C@@H]1C(=O)N2[C@H](CC[C@H]2C(=O)NCc2ccccc2)C[C@H]1Cc1ccccc1`, the Activity was determined as 3 µM.

The record behind these values is ChEMBL document CHEMBL1127905, “Design and synthesis of a prototype model antagonist of tachykinin NK-2 receptor” (Bioorg Med Chem Lett, 1994).
